The target of one assay is T1, DGAT1 enzyme (Homo sapiens, UniProt O75907).
T1 construct: made in house
T1 sequence (O75907 1-488): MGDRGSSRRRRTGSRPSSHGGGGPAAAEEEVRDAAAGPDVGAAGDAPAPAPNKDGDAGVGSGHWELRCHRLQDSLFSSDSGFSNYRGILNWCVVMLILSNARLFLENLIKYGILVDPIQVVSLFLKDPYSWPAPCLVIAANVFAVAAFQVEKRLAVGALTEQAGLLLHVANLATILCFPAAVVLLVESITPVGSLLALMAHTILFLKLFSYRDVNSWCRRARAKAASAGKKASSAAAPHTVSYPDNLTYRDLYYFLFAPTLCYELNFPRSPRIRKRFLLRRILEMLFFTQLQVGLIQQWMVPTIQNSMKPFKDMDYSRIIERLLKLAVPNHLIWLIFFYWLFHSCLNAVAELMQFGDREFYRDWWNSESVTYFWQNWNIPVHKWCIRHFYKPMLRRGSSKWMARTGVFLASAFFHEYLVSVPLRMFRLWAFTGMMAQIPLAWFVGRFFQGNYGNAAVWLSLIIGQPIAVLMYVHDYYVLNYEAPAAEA
The experiment in a line: DGAT1 inhibitory activity test. Format: biochemical. Particulars: test compound concentration of 0.05 μg/ml; [14C]-oleoyl-CoA, 23° C., 30 minutes; read-out: Inhibitory Rate. How it is done: (1) Preparation of DGAT1 Enzyme
DGAT1 enzyme was prepared and stored according to the method described in US2007/0249620.
(2) DGAT1 Inhibitory Activity Test
A reaction solution having the following composition was incubated at room temperature (23° C.) for 30 minutes: 175 mM Tris-HCl (pH 8.0), 8 mM MgCl2, 1 mg/ml BSA, 0.3 mM 1,2-dioleoyl-sn-glycerol (10-fold concentration of EtOH solution, 10% added), 10 μM [^14C]-oleoyl-CoA (approximately 50 mCi/mmol), 0.5% Triton X-100, the DGAT1 enzyme (10 μg) obtained in Test Example 1(1), and a test compound or vehicle (DMSO/MeOH, 7:3 solution, 5% added), 50 μl in total. A reaction stop solution […] consisting of isopropanol/1-heptane/water (80:20:2, v/v/v) was added to the reaction solution and stirred. Subsequently, water […] and 1-heptane (100 μl) were added thereto and stirred. The 1-heptane layer […] was spotted onto a TLC plate and developed with a developing solvent consisting of 1-hexane/diethyl ether/acetic acid (85:15:1, v/v/v). The radioactivity of the triglyceride fraction was quantified using BAS2500 Bio Image Analyzer (FUJIFILM) and compared with the control. The inhibitory activity of the test compound was calculated according to the formula shown below. In this context, the radioactivity at no reaction (0 minute incubation) was used as background.
Inhibitory Rate=100−[(Radioactivity of sample supplemented with test compound)−(Background)]/[(Radioactivity of control)−(Background)]×100

A further assay deals with C57BL/6N mice. The experiment in a line: Feeding suppressant activity on a high-fat diet. It is filed as in vivo. Particulars: male C57BL/6N mice, oral dose of 3 mg/kg; food intake 6 hours after initiation of high-fat diet feeding. How it is done: Male C57BL/6N mice (7-12 weeks old, body weight: 17-25 g, Charles River Laboratories Japan Inc.) were individually housed and fed on a high-fat diet (fat content: 45 kcal %: Research Diets, Inc. D12451) for 1 week or longer for acclimatization. Based on the food intake during the period, the animals were equally assigned to experimental groups and fasted overnight. Then, a vehicle (0.5% methylcellulose) or each test compound (1 to 10 mg/kg) suspended in vehicle was orally administered (10 mL/kg) to each group. 30 minutes after administration, the animals were fed on a high-fat diet, and the food intake was measured 6 hours after initiation of feeding. The feeding suppressant activity of each test compound was calculated based on the equation shown below.
Feeding suppressant activity(%)=[(Food intake of Vehicle group)−(Food intake of each test compound group)]/[(Food intake of Vehicle group)]×100

With `O=C(O)C[C@H]1CC[C@H](OC(=O)N2CCc3cc(NC(=O)Nc4ccccc4Cl)ccc3C2)CC1` [Example 2, trans-6-[3-(2-chloro-phenyl)-ureido]-3,4-dihydro-1H-isoquinoline-2-carboxylic acid 4-carboxymethyl-cyclohexyl ester], at DGAT1 enzyme, the inhibition at 0.05 µg/mL is at least 50%. For the same compound, the Feeding suppressant activity in the assay on C57BL/6N mice is recorded as 70%.
